In patent publication US11840533B2, “Pyridinone-based epigenetic modifiers and uses thereof” (THE BOARD OF TRUSTEES OF THE UNIVERSITY OF ILLINOIS, priority 2017, dated 2023):

System: fulvestrant-resistant MCF7:5C-FR cells
Experiment: Fulvestrant-resistant breast cancer cell viability (cell proliferation) assay
Format: cell-based
Conditions: 120 h, growth inhibition in fulvestrant-resistant MCF-7:CFR cells, 120 hrs
Description: For the cell proliferation assay, the fulvestrant-resistant MCF7:5C-FR cells were seeded at about 2000 to about 2500/well in 96-well plates. The next day, compounds were add to the cells at desired serial concentrations form 3 nM to 10 uM. A final 0.1% (v/v) DMSO was used as vehicle control and 1 uM JQ1 was used as positive. The cell were grown in the normal culture condition for 120 hrs. Then the Hoechst 33342 dye were add to each well at a final concentration of 5 μg/ml, and put back to the incubator at 37 C for 90 min. The plates were scanned immediately after the incubation with Celigo (Nexcelcom Biocesnse) for the fluorescence of the nuclear using DAPI channel, and the cell number was counted thought the analysis function of the Celigo software. The normalized cell number to the vehicle control was used to represent the cell proliferation. […] N.D.=Not determined.

Row | SMILES | IC50 [µM]
1 | CCS(=O)(=O)Nc1cccc2c1nc(-c1cn(C)c3c(O)nccc13)n2Cc1ccccc1C(F)(F)F [Compound 62, N-(2-(7-hydroxy-1-methyl-1H-pyrrolo[2,3-c]pyridin-3-yl)-1-(2-(trifluoromethyl)benzyl)-1H-benzo[d]imidaol-4-yl)ethanesulfonamide] | > 0.1
2 | CCS(=O)(=O)Nc1cc(-c2cn(C)c3c(O)nccc23)cc2c1cnn2C(C)(c1ccccn1)c1ccccn1 [Compound 63, N-(1-(1,1-di(pyridin-2-yl)ethyl)-6-(7-hydroxy-1-methyl-1H-pyrrolo[2,3-c]pyridin-3-yl)-1H-indazol-4-yl)ethanesulfonamide] | < 1
3 | CCS(=O)(=O)Nc1cc(-c2cn(C)c3c(O)nccc23)cc2c1ncn2[C@H](c1ccccc1)C1CCOCC1 [Compound 64, (S)-N-(6-(7-hydroxy-1-methyl-1H-pyrrolo[2,3-c]pyridin-3-yl)-1-(phenyl(tetrahydro-2H-pyran-4-yl)methyl)-1H-benzo[d]imidaol-4-yl)ethanesulfonamide] | < 1
4 | CCS(=O)(=O)Nc1cccc2c1nc(-c1cn(C)c3c(O)nccc13)n2Cc1ccc(N(C)C)cc1 [Compound 66, N-(1-(4-(dimethylamino)benzyl)-2-(7-hydroxy-1-methyl-1H-pyrrolo[2,3-c]pyridin-3-yl)-1H-benzo[d]imidaol-4-yl)ethanesulfonamide] | > 0.1
5 | Cn1cc(-c2nc3c(NS(C)(=O)=O)cccc3n2[C@H](c2ccccc2)C2CCOCC2)c2ccnc(O)c21 [Compound 67, (S)-N-(2-(7-hydroxy-1-methyl-1H-pyrrolo[2,3-c]pyridin-3-yl)-1-(phenyl(tetrahydro-2H-pyran-4-yl)methyl)-1H-benzo[d]imidaol-4-yl)methanesulfonamide] | < 1
6 | Cn1cc(-c2nc3c(NS(C)(=O)=O)cccc3n2[C@@H](c2ccccc2)C2CCOCC2)c2ccnc(O)c21 [Compound 68, (R)-N-(2-(7-hydroxy-1-methyl-1H-pyrrolo[2,3-c]pyridin-3-yl)-1-(phenyl(tetrahydro-2H-pyran-4-yl)methyl)-1H-benzo[d]imidaol-4-yl)methanesulfonamide] | < 1

More lines, now with the values ahead:

Row | IC50 [µM] | SMILES
7 | < 1 | CCS(=O)(=O)Nc1cccc2c1nc(-c1cn(C)c3c(O)nccc13)n2C(C)(c1ccccn1)c1ccccn1 [Compound 69, N-(1-(1,1-di(pyridin-2-yl)ethyl)-2-(7-hydroxy-1-methyl-1H-pyrrolo[2,3-c]pyridin-3-yl)-1H-benzo[d]imidaol-4-yl)ethanesulfonamide]
8 | 0.062 | Cn1cc(-c2cc(NS(C)(=O)=O)c3ccn(CC4CC(F)(F)C4)c3c2)c2cc[nH]c(=O)c21 [Compound 73, N-(1-((3,3-difluorocyclobutyl)methyl)-6-(1-methyl-7-oxo-6,7-dihydro-1H-pyrrolo[2,3-c]pyridin-3-yl)-1H-indol-4-yl)methanesulfonamide]
9 | 0.134 | Cn1cc(-c2cc(NS(C)(=O)=O)c3ccn(CC4(C)COC4)c3c2)c2cc[nH]c(=O)c21 [Compound 74, N-(6-(1-methyl-7-oxo-6,7-dihydro-1H-pyrrolo[2,3-c]pyridin-3-yl)-1-((3-methyloxetan-3-yl)methyl)-1H-indol-4-yl)methanesulfonamide]
10 | < 1 | CCS(=O)(=O)Nc1cc(-c2cn(C)c3c(=O)[nH]ccc23)cc2c1ccn2C(C)(c1nccn1C)c1nccn1C [Compound 75, N-(1-(1,1-bis(1-methyl-1H-imidazol-2-yl)ethyl)-6-(7-hydroxy-1-methyl-1H-pyrrolo[2,3-c]pyridin-3-yl)-1H-indol-4-yl)ethanesulfonamide]
11 | < 1 | CCS(=O)(=O)Nc1cc(-c2cn(C)c3c(=O)[nH]ccc23)cc2c1ccn2C(C)(c1cnccn1)c1cnccn1 [Compound 76, N-(1-(1,1-di(pyrazin-2-yl)ethyl)-6-(7-hydroxy-1-methyl-1H-pyrrolo[2,3-c]pyridin-3-yl)-1H-indol-4-yl)ethanesulfonamide]
